Assay results as given in ChEMBL document CHEMBL1201862, “PubChem BioAssay data set” (2004).
Active and inactive are the calls of the source.

Tests used:
[1] = target: T1, Lysosomal acid glucosylceramidase (Homo sapiens, UniProt P04062); experiment: Dose response cell-based high throughput screening assay to identify enhancers of beta-glucosidase activity. [Related pubchem assays: 784 ]; type: functional
T1 sequence (P04062 whole entry): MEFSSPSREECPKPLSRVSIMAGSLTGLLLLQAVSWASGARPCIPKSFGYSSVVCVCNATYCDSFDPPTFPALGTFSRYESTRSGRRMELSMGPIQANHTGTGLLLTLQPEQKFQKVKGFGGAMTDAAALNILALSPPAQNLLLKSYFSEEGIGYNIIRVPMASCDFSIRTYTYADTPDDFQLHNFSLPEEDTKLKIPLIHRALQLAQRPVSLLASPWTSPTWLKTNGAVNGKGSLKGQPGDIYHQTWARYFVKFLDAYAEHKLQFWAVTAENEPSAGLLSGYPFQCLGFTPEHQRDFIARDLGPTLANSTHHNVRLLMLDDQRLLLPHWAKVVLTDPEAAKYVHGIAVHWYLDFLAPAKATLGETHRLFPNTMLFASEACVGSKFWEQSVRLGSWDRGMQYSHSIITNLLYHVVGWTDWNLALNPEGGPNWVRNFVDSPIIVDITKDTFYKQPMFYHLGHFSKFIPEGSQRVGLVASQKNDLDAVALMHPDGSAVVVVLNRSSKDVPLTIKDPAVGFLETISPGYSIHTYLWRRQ

[2] = target: Peroxisome proliferator-activated receptor gamma/Nuclear receptor coactivator 2 (Homo sapiens, UniProt P37231); type: functional;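 note: agonist potency for raising coactivator recruitment to the receptor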
Peroxisome proliferator-activated receptor gamma/Nuclear receptor coactivator 2, sequence (P37231 whole entry): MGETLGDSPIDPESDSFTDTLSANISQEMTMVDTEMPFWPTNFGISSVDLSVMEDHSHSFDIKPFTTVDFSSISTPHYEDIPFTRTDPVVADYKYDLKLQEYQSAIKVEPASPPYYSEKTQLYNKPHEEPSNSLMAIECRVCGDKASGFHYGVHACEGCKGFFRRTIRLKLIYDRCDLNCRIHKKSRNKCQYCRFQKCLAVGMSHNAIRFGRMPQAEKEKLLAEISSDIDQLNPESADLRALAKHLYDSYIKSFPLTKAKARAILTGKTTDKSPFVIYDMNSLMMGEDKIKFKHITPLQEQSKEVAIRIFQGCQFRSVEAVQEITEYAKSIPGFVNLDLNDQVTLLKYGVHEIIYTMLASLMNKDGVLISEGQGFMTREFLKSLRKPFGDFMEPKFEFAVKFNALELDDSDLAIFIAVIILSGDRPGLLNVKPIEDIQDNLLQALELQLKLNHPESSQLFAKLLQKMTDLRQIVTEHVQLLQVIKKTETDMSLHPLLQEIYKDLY
Peroxisome proliferator-activated receptor gamma/Nuclear receptor coactivator 2, sequence (Q15596 whole entry, further chain): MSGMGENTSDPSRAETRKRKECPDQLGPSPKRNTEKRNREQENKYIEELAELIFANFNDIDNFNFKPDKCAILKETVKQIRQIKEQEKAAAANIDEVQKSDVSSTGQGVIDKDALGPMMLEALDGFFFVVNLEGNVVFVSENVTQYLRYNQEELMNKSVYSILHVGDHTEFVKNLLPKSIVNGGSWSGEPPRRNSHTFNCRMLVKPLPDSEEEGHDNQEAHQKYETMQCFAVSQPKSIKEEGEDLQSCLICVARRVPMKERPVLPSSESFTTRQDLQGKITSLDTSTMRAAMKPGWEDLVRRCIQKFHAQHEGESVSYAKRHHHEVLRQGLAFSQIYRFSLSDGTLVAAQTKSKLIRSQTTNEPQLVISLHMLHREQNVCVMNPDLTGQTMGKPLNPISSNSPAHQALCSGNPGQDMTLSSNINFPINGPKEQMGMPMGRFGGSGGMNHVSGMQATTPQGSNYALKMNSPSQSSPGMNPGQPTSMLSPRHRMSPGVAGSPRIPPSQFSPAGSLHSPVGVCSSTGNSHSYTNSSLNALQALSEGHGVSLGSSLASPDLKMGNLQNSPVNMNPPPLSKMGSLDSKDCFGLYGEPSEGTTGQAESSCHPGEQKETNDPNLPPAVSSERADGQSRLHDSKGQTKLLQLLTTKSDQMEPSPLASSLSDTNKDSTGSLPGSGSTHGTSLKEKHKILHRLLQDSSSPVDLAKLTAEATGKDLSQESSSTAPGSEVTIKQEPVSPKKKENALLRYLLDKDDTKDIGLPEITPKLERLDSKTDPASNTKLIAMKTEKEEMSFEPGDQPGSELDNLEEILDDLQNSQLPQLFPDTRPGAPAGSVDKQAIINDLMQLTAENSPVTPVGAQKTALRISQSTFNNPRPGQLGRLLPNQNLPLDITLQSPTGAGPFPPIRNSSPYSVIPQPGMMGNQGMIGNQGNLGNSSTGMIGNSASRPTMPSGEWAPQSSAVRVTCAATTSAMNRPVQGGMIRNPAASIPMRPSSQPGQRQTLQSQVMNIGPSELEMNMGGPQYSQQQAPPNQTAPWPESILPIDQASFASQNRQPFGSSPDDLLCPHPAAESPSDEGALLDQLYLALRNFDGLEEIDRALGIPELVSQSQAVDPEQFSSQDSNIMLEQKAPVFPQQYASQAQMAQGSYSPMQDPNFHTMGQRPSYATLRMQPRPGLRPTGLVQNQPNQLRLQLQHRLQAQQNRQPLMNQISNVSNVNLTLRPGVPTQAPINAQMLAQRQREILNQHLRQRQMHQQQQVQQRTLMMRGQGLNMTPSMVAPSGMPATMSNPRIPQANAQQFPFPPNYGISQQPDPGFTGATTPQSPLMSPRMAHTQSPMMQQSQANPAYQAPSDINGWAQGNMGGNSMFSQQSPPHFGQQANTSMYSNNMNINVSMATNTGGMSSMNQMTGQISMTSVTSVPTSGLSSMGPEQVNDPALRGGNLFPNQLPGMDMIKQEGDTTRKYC

[3] = target: Peroxisome proliferator-activated receptor gamma/Nuclear receptor coactivator 3 (Homo sapiens, UniProt P37231); type: functional;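 note: agonist potency for raising coactivator recruitment to the receptor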
[4] = target: Peroxisome proliferator-activated receptor gamma/Nuclear receptor coactivator 1 (Homo sapiens, UniProt P37231); type: functional;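 note: agonist potency as compounds enhance coactivator SRC-1 recruitment to PPARgamma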
Peroxisome proliferator-activated receptor gamma/Nuclear receptor coactivator 1, sequence (P37231 whole entry): as the sequence (P37231 whole entry) above
Peroxisome proliferator-activated receptor gamma/Nuclear receptor coactivator 1, sequence (Q15788 whole entry, further chain): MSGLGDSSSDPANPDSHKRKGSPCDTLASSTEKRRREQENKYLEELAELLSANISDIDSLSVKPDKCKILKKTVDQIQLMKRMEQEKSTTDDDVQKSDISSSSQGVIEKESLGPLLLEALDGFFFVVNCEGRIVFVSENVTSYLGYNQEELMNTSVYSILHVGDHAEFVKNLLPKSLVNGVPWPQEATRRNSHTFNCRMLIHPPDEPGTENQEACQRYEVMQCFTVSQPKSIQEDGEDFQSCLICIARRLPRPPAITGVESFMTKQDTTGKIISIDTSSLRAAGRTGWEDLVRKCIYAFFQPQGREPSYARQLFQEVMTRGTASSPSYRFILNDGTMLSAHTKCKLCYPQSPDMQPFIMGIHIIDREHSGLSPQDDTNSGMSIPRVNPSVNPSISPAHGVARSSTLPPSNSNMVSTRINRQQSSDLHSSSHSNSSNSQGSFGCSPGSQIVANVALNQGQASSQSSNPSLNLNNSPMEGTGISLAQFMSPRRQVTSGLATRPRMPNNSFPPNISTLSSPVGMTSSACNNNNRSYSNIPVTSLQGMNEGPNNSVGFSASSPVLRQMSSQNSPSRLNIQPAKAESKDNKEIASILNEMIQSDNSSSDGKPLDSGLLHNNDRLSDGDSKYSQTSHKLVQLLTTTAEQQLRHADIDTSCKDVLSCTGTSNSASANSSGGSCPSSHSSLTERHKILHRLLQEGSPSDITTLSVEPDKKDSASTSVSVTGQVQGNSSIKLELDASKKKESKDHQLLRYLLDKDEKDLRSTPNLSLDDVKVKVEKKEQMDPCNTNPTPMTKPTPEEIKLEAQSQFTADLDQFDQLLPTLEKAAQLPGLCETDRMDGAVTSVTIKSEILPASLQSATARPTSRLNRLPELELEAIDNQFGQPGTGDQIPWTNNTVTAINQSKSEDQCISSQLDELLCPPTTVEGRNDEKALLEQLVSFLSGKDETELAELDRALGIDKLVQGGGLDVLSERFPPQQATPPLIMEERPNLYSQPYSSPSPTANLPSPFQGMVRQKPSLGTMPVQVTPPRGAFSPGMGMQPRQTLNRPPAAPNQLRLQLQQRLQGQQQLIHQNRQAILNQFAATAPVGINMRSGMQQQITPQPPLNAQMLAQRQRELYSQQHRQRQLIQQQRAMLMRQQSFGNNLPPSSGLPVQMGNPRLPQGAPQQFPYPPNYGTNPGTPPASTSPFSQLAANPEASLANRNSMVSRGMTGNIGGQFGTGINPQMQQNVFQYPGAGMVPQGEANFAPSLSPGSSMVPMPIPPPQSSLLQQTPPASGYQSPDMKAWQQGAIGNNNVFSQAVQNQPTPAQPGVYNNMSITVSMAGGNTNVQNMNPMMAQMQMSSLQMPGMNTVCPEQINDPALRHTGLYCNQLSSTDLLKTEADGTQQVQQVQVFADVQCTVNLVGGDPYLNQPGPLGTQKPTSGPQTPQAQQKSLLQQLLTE

[5] = M. tuberculosis H37Rv growth inhibitors, H37Rv strain (AID 1626); type: functional
[6] = target: T2, Acyl-homoserine lactone acylase PvdQ (Pseudomonas aeruginosa (strain LESB58), UniProt Q9I194); experiment: P. aeruginosa PvdQ acylase inhibitors, dose response, biochemical, fluorescence, plate reader and imaging, cherry-picks (AID 493231)
T2 sequence (Q9I194 whole entry): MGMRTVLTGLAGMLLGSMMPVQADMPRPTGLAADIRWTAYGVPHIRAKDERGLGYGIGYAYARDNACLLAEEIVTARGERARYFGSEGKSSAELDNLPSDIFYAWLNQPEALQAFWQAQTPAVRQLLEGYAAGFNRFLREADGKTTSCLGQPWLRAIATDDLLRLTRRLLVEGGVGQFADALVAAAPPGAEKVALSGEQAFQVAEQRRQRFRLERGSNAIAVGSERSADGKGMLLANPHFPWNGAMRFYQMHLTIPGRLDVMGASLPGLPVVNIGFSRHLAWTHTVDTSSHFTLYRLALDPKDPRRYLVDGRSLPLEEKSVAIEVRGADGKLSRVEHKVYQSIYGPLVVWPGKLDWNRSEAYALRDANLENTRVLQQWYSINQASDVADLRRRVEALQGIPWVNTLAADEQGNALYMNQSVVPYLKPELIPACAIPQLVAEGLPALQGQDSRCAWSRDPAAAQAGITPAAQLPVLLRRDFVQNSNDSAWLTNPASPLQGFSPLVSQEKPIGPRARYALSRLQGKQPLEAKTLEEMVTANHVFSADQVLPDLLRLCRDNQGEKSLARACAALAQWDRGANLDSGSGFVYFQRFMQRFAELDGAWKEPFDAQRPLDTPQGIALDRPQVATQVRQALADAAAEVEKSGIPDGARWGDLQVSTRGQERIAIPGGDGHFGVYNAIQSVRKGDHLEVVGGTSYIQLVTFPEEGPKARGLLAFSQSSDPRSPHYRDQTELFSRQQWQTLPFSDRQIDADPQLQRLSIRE

Streptococcus = experiment: Group A Streptococcus viability loss, dose response, counter-screen for streptokinase expression inhibitor project, luminescence, BacTiterGlo (AID 1915); type: functional, organism-based;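 note: potency for reduction of bacterial viability or growth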
[7] = cytotoxicity in KRAS-transformed pancreatic duct cells, primary screen, cell-based, fluorescence, HTS (AID 431); type: functional; conditions: Homo sapiens;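 note: cell line used: HPDE-C7K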
[8] = target: Heat shock protein HSP 90-alpha (Homo sapiens, UniProt P07900); type: functional, organism-based
[9] = test system: Streptococcus sp. 'group A'; experiment: growth inhibition of control SK(-) GAS strain, dose response, counter-screen for streptokinase expression inhibitor project, luminescence, kanamycin, BacTiterGlo, confirmation (AID 1900); type: functional, organism-based
[10] = cytotoxicity in HPDE-C7 cells, cell-based, fluorescence, HTS (AID 430); type: functional; conditions: Homo sapiens
[11] = A Cell Based Secondary Assay To Explore Cytotoxicity of Compounds that Sensitize Mycobacterium Tuberculosis to Beta-Lactam Antibiotics.; type: functional
[12] = Luminescence Cell-Based Dose Retest to Confirm Inhibitors of Cancer Stem Cells. [Related pubchem assays (depositor defined):AID2717, AID2721]; type: functional; conditions: Homo sapiens
Streptokinase A = target: T3, Streptokinase A (Streptococcus pyogenes serotype M1, UniProt P10520); experiment: S. pyogenes streptokinase expression inhibitors, potency, dose response, plasminogen activation absorbance, OD405 (AID 1914); type: functional, Streptococcus pyogenes M1 GAS;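 note: secreted streptokinase activity via plasminogen activation per viability signal from cell pellet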
T3 sequence (P10520 whole entry): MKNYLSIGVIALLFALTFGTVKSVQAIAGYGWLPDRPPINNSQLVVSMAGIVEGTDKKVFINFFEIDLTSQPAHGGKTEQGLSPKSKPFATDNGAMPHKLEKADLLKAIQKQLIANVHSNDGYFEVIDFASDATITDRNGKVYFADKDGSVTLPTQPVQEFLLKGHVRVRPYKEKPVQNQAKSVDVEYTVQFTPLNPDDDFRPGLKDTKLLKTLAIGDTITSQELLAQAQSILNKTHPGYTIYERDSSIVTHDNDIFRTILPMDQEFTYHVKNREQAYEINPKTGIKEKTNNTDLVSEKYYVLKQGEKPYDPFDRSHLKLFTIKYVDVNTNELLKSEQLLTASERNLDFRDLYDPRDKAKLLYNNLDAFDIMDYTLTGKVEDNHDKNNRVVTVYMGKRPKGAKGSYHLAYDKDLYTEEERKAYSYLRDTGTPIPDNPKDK

[13] = target: G-protein coupled receptor 35 (Homo sapiens, UniProt Q9HC97); experiment: GPR35 antagonists blocking zaprinast-driven arrestin recruitment, primary screen, imaging, U2OS, beta-arrestin-GFP, zaprinast agonist (AID 2058); type: functional;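 note: antagonist potency meaning inhibition of agonist-induced arrestin redistribution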
G-protein coupled receptor 35, sequence (Q9HC97 whole entry): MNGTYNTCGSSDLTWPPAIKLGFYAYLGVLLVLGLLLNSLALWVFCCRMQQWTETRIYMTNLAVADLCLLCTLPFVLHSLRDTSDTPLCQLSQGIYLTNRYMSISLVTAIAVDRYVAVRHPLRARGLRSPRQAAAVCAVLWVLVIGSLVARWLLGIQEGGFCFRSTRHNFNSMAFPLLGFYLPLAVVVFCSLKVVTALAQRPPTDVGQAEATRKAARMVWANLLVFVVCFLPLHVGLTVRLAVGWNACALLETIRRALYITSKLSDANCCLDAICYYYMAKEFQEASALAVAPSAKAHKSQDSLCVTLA

[14] = target: DNA dC->dU-editing enzyme APOBEC-3G (Homo sapiens, UniProt Q9HC16); experiment: Dose Response confirmation of small molecule APOBEC3G DNA Deaminase Inhibitors via a fluorescence-based single-stranded DNA deaminase assay. [Related pubchem assays (depositor defined):AID493012, AID493028]; type: functional
[15] = target: DNA dC->dU-editing enzyme APOBEC-3A (Homo sapiens, UniProt P31941); experiment: APOBEC3A DNA deaminase inhibitors, dose response, biochemical (AID 504722); type: functional
DNA dC->dU-editing enzyme APOBEC-3A, sequence (P31941 whole entry): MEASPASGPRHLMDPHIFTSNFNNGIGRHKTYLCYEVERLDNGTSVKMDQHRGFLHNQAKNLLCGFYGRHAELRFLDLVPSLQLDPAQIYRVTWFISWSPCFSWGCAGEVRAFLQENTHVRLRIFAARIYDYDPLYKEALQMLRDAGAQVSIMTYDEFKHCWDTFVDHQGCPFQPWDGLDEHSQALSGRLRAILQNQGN

Cytochrome P450 2C9 = Cytochrome P450 2C9 (Homo sapiens, UniProt P11712)
Cytochrome P450 2C19 = Cytochrome P450 2C19 (Homo sapiens, UniProt P33261); experiment: Cytochrome panel assay with activity outcomes. Panel member name: p450-cyp2c19 Compounds with AC50 equal or less than 10 uM are considered active; type: functional; conditions: read-out: AC50
Cytochrome P450 2C19, sequence (P33261 whole entry): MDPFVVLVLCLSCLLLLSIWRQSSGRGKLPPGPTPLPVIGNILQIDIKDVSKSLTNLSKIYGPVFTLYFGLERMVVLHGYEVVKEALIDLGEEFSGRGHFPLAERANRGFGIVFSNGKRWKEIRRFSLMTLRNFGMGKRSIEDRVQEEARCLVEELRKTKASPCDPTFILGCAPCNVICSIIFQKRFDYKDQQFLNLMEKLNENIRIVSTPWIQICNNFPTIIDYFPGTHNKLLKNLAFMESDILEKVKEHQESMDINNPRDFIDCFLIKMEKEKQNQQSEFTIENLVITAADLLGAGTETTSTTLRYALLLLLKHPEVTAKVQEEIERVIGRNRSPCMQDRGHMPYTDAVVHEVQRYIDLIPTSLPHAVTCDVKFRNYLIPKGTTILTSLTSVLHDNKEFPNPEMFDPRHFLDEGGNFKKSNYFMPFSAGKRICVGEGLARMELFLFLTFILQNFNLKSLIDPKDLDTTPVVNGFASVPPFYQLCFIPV

Question: For `COc1ccc(NC(=O)CN2CCN(S(=O)(=O)c3ccc(C(C)C)cc3)CC2)cc1OC`, which EC50 [1] is on record?
Answer: > 10 µM (not active)

Question: Which EC50 [2] does the source give for `CCCCSc1nnc([C@H](C)NC(=O)OC(C)(C)C)o1` here?
Answer: > 79.4 µM (not active)

Question: What about the EC50 [3] of the same compound?
Answer: > 79.4 µM (not active)

Question: What about the EC50 [4] of the same compound?
Answer: > 79.4 µM (not active)

Question: For `CCc1c(C#N)c(N)nc(SCC(=O)OCc2ccccc2)c1C#N`, which IC50 [5] is on record?
Answer: > 100 µM (active)

Question: With `CCC(C)NS(=O)(=O)c1ccc(OC)c(Cl)c1Cl` (centres undefined) as the compound, how does the AC50 [6] read?
Answer: 10 µM (active)

Question: What does the source list for `CCCOC(=O)c1ccc(Oc2c[nH]nc2-c2ccc(OC)cc2O)cc1`?
Answer: EC50 (Streptococcus): 10.3 µM (active); EC50 [7]: 6.14 µM (active); AC50 [8]: 7.97 µM (active); EC50 [9]: 8.73 µM (active); EC50 [10]: 8.49 µM (active)

Question: Which CC50 [11] does the source give for `O=C(Nc1ccccc1-c1ccccc1)C12CC3CC(CC(C3)C1)C2` here?
Answer: > 40 µM (active)

Question: Which EC50 [2] does the source give for `NNc1nc2c(-c3ccc(F)cc3)nnn2c2ccccc12` here?
Answer: > 79.4 µM (not active)

Question: What about the EC50 [3] of the same compound?
Answer: > 79.4 µM (not active)

Question: What about the EC50 [4] of the same compound?
Answer: > 79.4 µM (not active)

Question: Which IC50 [5] does the source give for `O=C(c1cc(COc2ccc(F)cc2Cl)on1)N1CCC(OCc2cccnc2)CC1` here?
Answer: > 100 µM (active)

Question: Which AC50 [12] does the source give for `CC(NS(=O)(=O)OCC(Cl)(Cl)Cl)c1ccc(C(C)(C)C)cc1` (centres undefined) here?
Answer: 2.77 µM (active)

Question: What about the EC50 (Streptococcus) of the same compound?
Answer: 12.8 µM (active)

Question: What about the EC50 (Streptokinase A) of the same compound?
Answer: 4.06 µM (active)

Question: And the EC50 [9]?
Answer: 4.61 µM (active)

Question: And the IC50 [13]?
Answer: 1.46 µM (active)

Question: What does the source list for `CCn1c(SCC(=O)O)nnc1C1CCCCC1`?
Answer: EC50 [2]: > 79.4 µM (not active); EC50 [3]: > 79.4 µM (not active); EC50 [4]: > 79.4 µM (not active)

Question: For `CCc1nnc(S)n1/N=C/c1c(O)ccc2ccccc12`, which IC50 [14] is on record?
Answer: 4 µM (active)

Question: What about the IC50 [15] of the same compound?
Answer: > 100 µM (inactive)

Question: Which EC50 [1] does the source give for `Cn1c(/C(C#N)=C(\O)c2ccc(S(=O)(=O)N3CCCCC3)cc2)nc2ccccc21` here?
Answer: > 50 µM (not active)

Question: What about the AC50 (Cytochrome P450 2C9) of the same compound?
Answer: 0.316 µM (inconclusive)

Question: And the AC50 (Cytochrome P450 2C19)?
Answer: 10 µM (inconclusive)
